According to PubChem BioAssay AID1963962 (Molecular Pharmacology Branch, DTP, NCI, 2024):

Tested on: 967376-340-R-J2-PDC multicell spheroid viability
Experiment: Anticancer human tumor 967376-340-R-J2-PDC patient-derived colon adenocarcinoma cell line growth inhibition [PI3K]
Conditions: for IC50: curve of first compound; for viability, T/C: stronger effect = lower value; active means viability on the fitted dose curve at most 10% of control; inactive means the rest
Method in brief: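 Combination activity was assessed by viability in multicellular tumor spheroids carrying HUVEC and MSC components. Agents were tested with PI3K inhibitors from a Cmax-based top dose (or 10 microM) downward in half-log increments.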
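Further: spheroids exposed to agents for 7 days before read-out.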
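Wherever viability, T/C is given: luminescence used as surrogate of cell viability.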

Cn1cnc2c(F)c(Nc3ccc(Br)cc3Cl)c(C(=O)NOCCO)cc21 + COc1c(OCCCN2CCOCC2)ccc2c3n(c(=NC(=O)c4cnc(N)nc4)nc12)CCN3
1010 nM: IC50 (second compound 0.0316 µM)
inactive: viability, T/C (second compound 0.00316 µM, first compound 0.00949 µM) 85.7% | viability, T/C (second compound 0.00316 µM, first compound 0.03 µM) 79.2% | viability, T/C (second compound 0.00316 µM, first compound 0.0949 µM) 87.5% | viability, T/C (second compound 0.00316 µM, first compound 0.3 µM) 67.9% | viability, T/C (second compound 0.00316 µM, first compound 0.949 µM) 80.5% | viability, T/C (second compound 0.00316 µM, first compound 3 µM) 48.7% | viability, T/C (second compound 0.01 µM, first compound 0.00949 µM) 106% | viability, T/C (second compound 0.01 µM, first compound 0.03 µM) 86.6% | viability, T/C (second compound 0.01 µM, first compound 0.0949 µM) 66.9% | viability, T/C (second compound 0.01 µM, first compound 0.3 µM) 79.9% | viability, T/C (second compound 0.01 µM, first compound 0.949 µM) 87% | viability, T/C (second compound 0.01 µM, first compound 3 µM) 33.4% | viability, T/C (second compound 0.0316 µM, first compound 0.00949 µM) 80.1% | viability, T/C (second compound 0.0316 µM, first compound 0.03 µM) 61.2% | viability, T/C (second compound 0.0316 µM, first compound 0.0949 µM) 51.7% | viability, T/C (second compound 0.0316 µM, first compound 0.3 µM) 53.2% | viability, T/C (second compound 0.0316 µM, first compound 0.949 µM) 57.6% | viability, T/C (second compound 0.0316 µM, first compound 3 µM) 15.3% | viability, T/C (second compound 0.1 µM, first compound 0.00949 µM) 49.2% | viability, T/C (second compound 0.1 µM, first compound 0.03 µM) 59.9% | viability, T/C (second compound 0.1 µM, first compound 0.0949 µM) 49.6% | viability, T/C (second compound 0.1 µM, first compound 0.3 µM) 53.1% | viability, T/C (second compound 0.1 µM, first compound 0.949 µM) 19.8% | viability, T/C (second compound 0.316 µM, first compound 0.00949 µM) 28.5% | viability, T/C (second compound 0.316 µM, first compound 0.03 µM) 65.1% | viability, T/C (second compound 0.316 µM, first compound 0.0949 µM) 46.9% | viability, T/C (second compound 0.316 µM, first compound 0.3 µM) 23.9% | viability, T/C (second compound 1 µM, first compound 0.00949 µM) 44.2% | viability, T/C (second compound 1 µM, first compound 0.03 µM) 25.5% | viability, T/C (second compound 1 µM, first compound 0.0949 µM) 32.3% | viability, T/C (second compound 1 µM, first compound 0.3 µM) 16.7%
< 9.49 nM: IC50 (second compound 0.316 µM) | IC50 (second compound 1 µM)
2850 nM: IC50 (second compound 0.00316 µM)
2080 nM: IC50 (second compound 0.01 µM)
332 nM: IC50 (second compound 0.1 µM)
active: viability, T/C (second compound 0.1 µM, first compound 3 µM) 1.95% | viability, T/C (second compound 0.316 µM, first compound 0.949 µM) 1.63% | viability, T/C (second compound 0.316 µM, first compound 3 µM) 1.2% | viability, T/C (second compound 1 µM, first compound 0.949 µM) 1.19% | viability, T/C (second compound 1 µM, first compound 3 µM) 1.28%

C[C@@H](NC(=O)c1ncnc(N)c1Cl)c1ncc(C(=O)Nc2cc(C(F)(F)F)c(Cl)cn2)s1 + COc1c(OCCCN2CCOCC2)ccc2c3n(c(=NC(=O)c4cnc(N)nc4)nc12)CCN3
inactive: viability, T/C (second compound 0.00316 µM, first compound 0.0316 µM) 94.3% | viability, T/C (second compound 0.00316 µM, first compound 0.1 µM) 86.9% | viability, T/C (second compound 0.00316 µM, first compound 0.316 µM) 80.6% | viability, T/C (second compound 0.00316 µM, first compound 1 µM) 89.7% | viability, T/C (second compound 0.00316 µM, first compound 3.16 µM) 120% | viability, T/C (second compound 0.00316 µM, first compound 10 µM) 123% | viability, T/C (second compound 0.01 µM, first compound 0.0316 µM) 93.2% | viability, T/C (second compound 0.01 µM, first compound 0.1 µM) 84.5% | viability, T/C (second compound 0.01 µM, first compound 0.316 µM) 91.9% | viability, T/C (second compound 0.01 µM, first compound 1 µM) 100% | viability, T/C (second compound 0.01 µM, first compound 3.16 µM) 112% | viability, T/C (second compound 0.01 µM, first compound 10 µM) 91.3% | viability, T/C (second compound 0.0316 µM, first compound 0.0316 µM) 67.7% | viability, T/C (second compound 0.0316 µM, first compound 0.1 µM) 77.1% | viability, T/C (second compound 0.0316 µM, first compound 0.316 µM) 71.9% | viability, T/C (second compound 0.0316 µM, first compound 1 µM) 63% | viability, T/C (second compound 0.0316 µM, first compound 3.16 µM) 93.3% | viability, T/C (second compound 0.0316 µM, first compound 10 µM) 107% | viability, T/C (second compound 0.1 µM, first compound 0.0316 µM) 66.6% | viability, T/C (second compound 0.1 µM, first compound 0.1 µM) 51.5% | viability, T/C (second compound 0.1 µM, first compound 0.316 µM) 70.1% | viability, T/C (second compound 0.1 µM, first compound 1 µM) 62.7% | viability, T/C (second compound 0.1 µM, first compound 3.16 µM) 62.8% | viability, T/C (second compound 0.1 µM, first compound 10 µM) 70.2% | viability, T/C (second compound 0.316 µM, first compound 0.0316 µM) 49% | viability, T/C (second compound 0.316 µM, first compound 0.1 µM) 49.6% | viability, T/C (second compound 0.316 µM, first compound 0.316 µM) 49.2% | viability, T/C (second compound 0.316 µM, first compound 1 µM) 43.2% | viability, T/C (second compound 0.316 µM, first compound 3.16 µM) 56.6% | viability, T/C (second compound 0.316 µM, first compound 10 µM) 62.6% | viability, T/C (second compound 1 µM, first compound 0.0316 µM) 43% | viability, T/C (second compound 1 µM, first compound 0.1 µM) 33% | viability, T/C (second compound 1 µM, first compound 0.316 µM) 38.5% | viability, T/C (second compound 1 µM, first compound 1 µM) 38.1% | viability, T/C (second compound 1 µM, first compound 3.16 µM) 45.7% | viability, T/C (second compound 1 µM, first compound 10 µM) 45%
> 10000 nM: IC50 (second compound 0.00316 µM) | IC50 (second compound 0.01 µM) | IC50 (second compound 0.0316 µM) | IC50 (second compound 0.1 µM)
< 31.6 nM: IC50 (second compound 0.316 µM) | IC50 (second compound 1 µM)
